{"source": "patent US20100086519A1", "about": "“Treatment of Hepatitis C Infection With Metalloporphyrins” (The Charlotte-Mecklenburg Hospital Authority d/b/a …, priority 2008, published 2010)", "key": {"[1]": {"system": "HCV core, NS5A", "assay": "HCV protein levels by Western blot in Con1 cells, 24 hours", "type": "cell-based, hepatitis C virus", "details": "different concentrations, FIG. 7B", "description": "(§1) Bartenschlager (University of Heidelberg, Heidelberg, Germany).\n(§2) Biochim Biophys Acta 2008; 1779:195-203.\n(§3) Total RNA and proteins were extracted."}, "[2]": {"system": "HCV core protein", "details": "J6/JFH1 RNA transfected Huh-7.5 cells", "procedure": "In brief, total proteins (30-50 μg) were separated on 4-15% gradient SDS-PAGE gels. After electrophoretic transfer onto ImmunBlot PVDF membrane, membranes were blocked for 1 hour in PBS containing 5% nonfat dry milk and 0.1% Tween-20, and then incubated overnight with primary antibody at 4° C. The dilutions of the primary antibodies were as follows: 1:2000 for anti-HCV NS5A and anti-GAPDH antibodies, and 1:5000 for anti-HCV core antibody. The membranes were then incubated for 1 hour with horseradish peroxidase-conjugated secondary antibodies (dilution 1:10,000). Finally, the bound antibodies were visualized with the ECL-Plus chemiluminescence system according to the manufacturer's protocol. A Kodak 1DV3.6 computer-based imaging system (Rochester, N.Y.) was used to measure the relative optical density of each specific band obtained after Western blotting. Data are expressed as percentages of the controls (corresponding to the value obtained with the vehicle-treated cells), which were assigned values of one.\nFor HCV RNA transfection, Huh-7.5 cells were plated in 24-well plates one day prior to transfection and transfected at 70˜80% confluence. […]\nHuh-7.5 cells were transfected with 2 μg/well of J6/JFH1 RNA by Lipofectamine 2000. […] HCV RNA was quantified by qRT-PCR, and HCV core, NS5A and GAPDH protein levels were measured by Western blots."}, "[3]": {"system": "HCV", "assay": "anti-viral activity (summary statement)", "type": "cell-based, hepatitis C virus"}, "[4]": {"system": "HCV core protein", "details": "Huh-7/T7 cells, pFK-Con1/GDD, FIG. 7D; much less than in Con1 replicon system", "procedure": "(§4) In brief, total proteins (30-50 μg) were separated on 4-15% gradient SDS-PAGE gels. After electrophoretic transfer onto ImmunBlot PVDF membrane, membranes were blocked for 1 hour in PBS containing 5% nonfat dry milk and 0.1% Tween-20, and then incubated overnight with primary antibody at 4° C. The dilutions of the primary antibodies were as follows: 1:2000 for anti-HCV NS5A and anti-GAPDH antibodies, and 1:5000 for anti-HCV core antibody. The membranes were then incubated for 1 hour with horseradish peroxidase-conjugated secondary antibodies (dilution 1:10,000). Finally, the bound antibodies were visualized with the ECL-Plus chemiluminescence system according to the manufacturer's protocol. A Kodak 1DV3.6 computer-based imaging system (Rochester, N.Y.) was used to measure the relative optical density of each specific band obtained after Western blotting. Data are expressed as percentages of the controls (corresponding to the value obtained with the vehicle-treated cells), which were assigned values of one. […]\nTo evaluate whether ZnMP-mediated degradation of NS5A may play a role in inhibiting HCV replication, Con1 full-length HCV replicon Huh-7.5 cells were treated with different concentrations of ZnMP for 24 hours. […] HCV virus RNA was quantified by qRT-PCR, and the levels of HCV core, NS5A and GAPDH protein were measured by Western blots. […]"}, "[5]": {"system": "HCV replicon RNA", "assay": "HCV RNA by qRT-PCR in Con1 full-length HCV replicon Huh-7.5 cells", "type": "cell-based, hepatitis C virus", "details": "different concentrations, 24 hours, FIG. 7A", "protocol": "as §1\nTotal RNA from treated cells was extracted and cDNA was synthesized as described in Hou et al. Real time quantitative RT-PCR was performed using a MyiQ™ Single Color Real-Time PCR Detection System from Bio-Rad (Hercules, Calif.) and iQ™ SYBR Green Supermix Real-Time PCR kit (Bio-Rad). Samples without template and without reverse transcriptase were included as negative controls, which, as expected, produced negligible signals (Ct values>35). Fold-change values were calculated by comparative Ct analysis after normalizing for the quantity of GAPDH in the same samples.\nas §3"}, "[6]": {"system": "HCV core protein", "procedure": "as §4\nNS5A protein levels in 9-13 and Con1 cells, core protein levels in CNS3 cells, and NS5A and core protein levels in Huh-7/T7 cells transfected with pFK-Con1/GND (a plasmid encoding a replication deficient variant of Con1) exposed to different concentrations of ZnMP (0, 1, 5, 10 μM) for 4 hours were evaluated. […]"}, "[7]": {"target": "T1, HCV NS5A protein (Hepatitis C virus genotype 1b, UniProt Q9WMX2)", "T1 sequence (Q9WMX2 1973-2419)": "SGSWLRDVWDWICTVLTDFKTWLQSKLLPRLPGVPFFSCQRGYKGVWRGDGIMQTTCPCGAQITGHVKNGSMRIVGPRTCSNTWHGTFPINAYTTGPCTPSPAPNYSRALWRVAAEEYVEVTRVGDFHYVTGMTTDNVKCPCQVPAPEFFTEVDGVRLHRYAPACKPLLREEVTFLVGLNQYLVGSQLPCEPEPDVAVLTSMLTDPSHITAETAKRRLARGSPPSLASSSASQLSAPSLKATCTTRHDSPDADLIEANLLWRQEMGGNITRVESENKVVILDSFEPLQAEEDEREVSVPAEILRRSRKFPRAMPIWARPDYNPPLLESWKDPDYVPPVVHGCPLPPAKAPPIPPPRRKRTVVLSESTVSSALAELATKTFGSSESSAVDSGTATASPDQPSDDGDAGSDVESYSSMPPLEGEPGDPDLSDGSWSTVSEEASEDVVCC", "assay": "NS5A protein levels by Western blot in 9-13 cells", "type": "cell-based", "parameters": "processed into structural (C, E1, E2) and nonstructural (NS2, NS3, NS4A, NS4B, NS5A and NS5B) proteins; expressed in transfected cells; host or cells: 9-13 cells (human hepatoma cells with a replicating HCV NS3-NS5B region)", "description": "as §1, §2"}, "[8]": {"target": "T1, HCV NS5A protein", "assay": "NS5A protein half-life determination with cycloheximide in 9-13 cells", "type": "cell-based", "parameters": "processed into structural (C, E1, E2) and nonstructural (NS2, NS3, NS4A, NS4B, NS5A and NS5B) proteins; expressed in transfected cells; host or cells: 9-13 cells (human hepatoma cells with a replicating HCV NS3-NS5B region)", "details": "100 ug/mL CHX, 10 μM ZnMP, 0-4 h, FIGS. 4A, 4B", "procedure": "9-13 cells were incubated with 100 ug/mL cycloheximide (CHX) in the presence or absence of 10 uM ZnMP. Western blots were performed using anti-HCV NS5A and anti-GAPDH antibodies. Band intensities of Western blots were measured by densitometric analysis. GAPDH bands were used as internal controls to correct for protein loadings.\n9-13 cells were treated with 100 ug/mL cycloheximide (CHX) and with or without 10 μM ZnMP for the indicated periods (0, 0.5, 1, 2, 4 h), and then cells were harvested and total proteins were isolated. Proteins were separated on 4-15% SDS-polyacrylamide gel, transferred to a PVDF membrane, anti-HCV NS5A or GAPDH specific antibodies were used to detect NS5A or GAPDH protein levels by Western blot. […] The band intensity of NS5A from untreated sample (0 h) was set at 1."}}, "note": "Where two headings read alike, the source gives them in different places."}
{"smiles": "CCC1=C(C)c2cc3[nH]c(cc4nc(cc5[n-]c(cc1n2)c(C)c5CCC(=O)[O-])C(CCC(=O)[O-])=C4C)c(C)c3CC.[H+].[Zn+2]", "note": "[ZnMP, Zinc mesoporphyrin]", "values": [{"measurement": "HCV protein levels", "setting": "[1]", "result": "dose-dependent reduction"}, {"measurement": "core protein levels", "setting": "[2]; 4 h", "result": "not affected"}, {"measurement": "core protein levels", "setting": "[2]; 24 h", "result": "decrease"}, {"measurement": "anti-viral activity (summary statement)", "setting": "[3]", "result": "display anti-viral activity"}, {"measurement": "HCV core protein levels", "setting": "[4]", "result": "reduction of core"}, {"measurement": "viral RNA levels", "setting": "[5]", "result": "dose-dependent reduction"}, {"measurement": "HCV core protein levels", "setting": "[6]; Huh-7/T7 cells transfected with pFK-Con1/GND, 0, 1, 5, 10 μM, 4 hours, FIG. 1D", "result": "no detectable effects"}, {"measurement": "HCV core protein levels", "setting": "[6]; Huh-7/T7 cells, pFK-Con1/GND, 24 h, FIG. 7C", "result": "remained unaffected"}, {"measurement": "NS5A protein levels", "setting": "[7]; 9-13 cells, 10 μM ZnMP alone, 10 and 24 hours, FIG. 9B", "result": "slightly increased"}, {"measurement": "NS5A protein levels", "setting": "[7]; 9-13 cells, 10 μM ZnMP alone, as little as 2 hours, FIG. 9B", "result": "rapid and marked down-regulation"}, {"measurement": "NS5A protein levels, time course", "setting": "[7]; 9-13 cells, 10 μM, 0, 2, 4, 6 h, FIG. 2B", "result": "markedly and rapidly decreased"}, {"measurement": "NS5A protein levels before immunoprecipitation", "setting": "[7]; 9-13 cells, 10 μM, 4 h, FIG. 6A", "result": "down-regulation"}, {"measurement": "NS5A protein levels", "setting": "[7]; 9-13 cells, 10 μM, 4 hours, FIG. 2A", "result": "decreased"}, {"measurement": "NS5A protein levels", "setting": "[7]; 9-13 cells, ZnMP 0, 1, 5, 10 μM, 4 hours, FIG. 1A", "result": "marked decrease"}, {"measurement": "reduction of NS5A protein levels", "setting": "[7]; about 1 μM, 4 hours, stated for bar graphs of FIGS. 1A/1B (9-13 and Con1 cells)", "result": "about 60%"}, {"measurement": "NS5A protein levels in presence of cycloheximide", "setting": "[8]", "result": "greatly and rapidly reduced"}]}
